Reference: ChEMBL document CHEMBL3758145, “Synthesis of 3-acyloxyxanthone derivatives as α-glucosidase inhibitors: A further insight into the 3-substituents' effect” (Bioorg Med Chem, 2016)

Tests used:
Parameters in all cases: species or system Saccharomyces cerevisiae
[1] = Inhibition of yeast alpha-glucosidase using PNP glycoside as substrate preincubated for 30 mins followed by substrate addition measured for 60 secs by spectrophotometric analysis
[2] = Non-competitive inhibition of yeast alpha-glucosidase using PNP glycoside as substrate assessed as enzyme-inhibitor complex preincubated for 30 mins followed by substrate addition measured for 60 secs by Lineweaver-Burk plot analysis
[3] = Non-competitive inhibition of yeast alpha-glucosidase using PNP glycoside as substrate assessed as enzyme-substrate-inhibitor complex preincubated for 30 mins followed by substrate addition measured for 60 secs by Lineweaver-Burk plot analysis

| Structure (SMILES) | IC50 [1] | Ki [2] | Ki [3] |
| --- | --- | --- | --- |
| O=C(Oc1cc(O)c2c(=O)c3ccccc3oc2c1)c1ccncc1 | 23.7 µM | – | – |
| O=C(Oc1cc(O)c2c(=O)c3ccccc3oc2c1)c1ccccc1Cl | 21.8 µM | – | – |
| O=C(Oc1cc(O)c2c(=O)c3ccccc3oc2c1)c1cccc(Br)c1 | 11.6 µM | 18 µM | 17.4 µM |
| OC[C@H]1NC[C@H](O)[C@@H](O)[C@@H]1O [DUVOGLUSTAT] | 40 µM | – | – |
| COc1ccc(C(=O)Oc2cc(O)c3c(=O)c4ccccc4oc3c2)cc1 | 23.2 µM | – | – |
| O=c1c2ccccc2oc2cc(O)cc(O)c12 | 145 µM | – | – |
| CC(C)(C)[Si](C)(C)Oc1ccc(C(=O)Oc2cc(O)c3c(=O)c4ccccc4oc3c2)cc1 | 10.6 µM | 13.3 µM | 12.1 µM |
| Cc1ccc(C(=O)Oc2cc(O)c3c(=O)c4ccccc4oc3c2)cc1 | 106 µM | – | – |
| O=C(Oc1cc(O)c2c(=O)c3ccccc3oc2c1)c1cccnc1 | 42.6 µM | – | – |
| O=C(/C=C/c1ccccc1)Oc1cc(O)c2c(=O)c3ccccc3oc2c1 | 46.7 µM | – | – |
| CNc1ccc(C(=O)Oc2cc(O)c3c(=O)c4ccccc4oc3c2)cc1 | 19.8 µM | – | – |

The remaining lines, values ahead:

| IC50 [1] | Ki [2] | Ki [3] | Structure (SMILES) |
| --- | --- | --- | --- |
| 42 µM | – | – | O=C(Oc1cc(O)c2c(=O)c3ccccc3oc2c1)c1ccccn1 |
| 21.6 µM | – | – | O=C(Oc1cc(O)c2c(=O)c3ccccc3oc2c1)c1cccc2ccccc12 |
| 30.6 µM | – | – | O=C(Oc1cc(O)c2c(=O)c3ccccc3oc2c1)c1ccc2ccccc2c1 |
| 13.3 µM | 17.8 µM | 15.5 µM | O=C(Oc1cc(O)c2c(=O)c3ccccc3oc2c1)c1ccc(O)cc1 |
| 58.2 µM | – | – | COc1cc(C(=O)Oc2cc(O)c3c(=O)c4ccccc4oc3c2)cc(OC)c1OC |
| 36.1 µM | – | – | O=C(Oc1cc(O)c2c(=O)c3ccccc3oc2c1)c1ccccc1 |
| 31.6 µM | – | – | O=C(Oc1cc(O)c2c(=O)c3ccccc3oc2c1)c1ccccc1F |
